Active and inactive are the calls of the source. The calls are words filed in the database; no cut-off is given here.
Columns and labels:
Syrian golden hamster [1] = assay: Antidyslipidemic activity in Triton-induced hyperlipidemic Syrian golden hamster model assessed as decrease in PL level at 50 mg/kg measured after 18 hrs; type: functional, Mesocricetus auratus; parameters: scale not given: the % may be the effect or the level left
Syrian golden hamster [2] = assay: Antidyslipidemic activity in Triton-induced hyperlipidemic Syrian golden hamster model assessed as decrease in triglyceride level at 50 mg/kg measured after 18 hrs; type: functional, Mesocricetus auratus; parameters: scale not given: the % may be the effect or the level left
L6 [3] = assay: Induction of glucose uptake in rat L6 cells expressing GLUT4 myc epitopes at 10 uM incubated for 24 hrs by scintillation counting method relative to control; type: functional
[4] = Antioxidant activity assessed as hydroxyl radical scavenging activity at 100 uM incubated for 90 mins by spectrophotometric analysis; type: functional
Syrian golden hamster [5] = assay: Antidyslipidemic activity in Triton-induced hyperlipidemic Syrian golden hamster model assessed as decrease in total cholesterol level at 50 mg/kg measured after 18 hrs; type: functional, Mesocricetus auratus; parameters: scale not given: the % may be the effect or the level left
[6] = Antioxidant activity assessed as superoxide anion radical scavenging activity at 100 uM incubated for 30 mins by spectrophotometric analysis; type: functional
Syrian golden hamster [7] = assay: Antidyslipidemic activity in Triton-induced hyperlipidemic Syrian golden hamster model assessed as increase in post-heparin lipolytic activity at 50 mg/kg measured after 18 hrs; type: functional, Mesocricetus auratus
Syrian golden hamster [8] = assay: Antidyslipidemic activity in Triton-induced hyperlipidemic Syrian golden hamster model assessed as increase in lecithin-cholesterol acyltransferase level at 50 mg/kg measured after 18 hrs; type: functional, Mesocricetus auratus
L6 [9] = assay: Induction of glucose uptake in rat L6 cells expressing GLUT4 myc epitopes at 5 uM incubated for 24 hrs by scintillation counting method relative to control; type: functional
L6 [10] = assay: Induction of insulin stimulated glucose uptake in rat L6 cells expressing GLUT4 myc epitopes at 10 uM preincubated for 16 hrs followed by 3 hrs incubation under serum deprived medium prior to insulin stimulation for 20 mins; type: functional, cell-based; conditions: time 1160.0 min
L6 [11] = assay: Induction of GLUT4myc translocation to rat L6 cells surface at 5 to 25 uM incubated for 20 mins followed by insulin stimulation by colorimetric assay; type: functional, cell-based; conditions: dose 5-25 µM
L6 [12] = assay: Cytotoxicity against rat L6 cells assessed as reduction in cell viability at 5 to 100 uM incubated overnight by MTT assay; type: toxicity, cell-based; conditions: l6, 100 µM, dose 5-100 µM
Rattus norvegicus [13] = assay: Antidiabetic activity in streptozotocin induced hyperglycemic Wistar rat model assessed as improvement in blood glucose level at 100 mg/kg,po measured upto 24 hrs relative to control; type: functional
Rattus norvegicus [14] = assay: Antidiabetic activity in streptozotocin induced hyperglycemic Wistar rat model assessed as improvement in blood glucose level at 100 mg/kg,po measured upto 5 hrs relative to control; type: functional
L6 [15] = assay: Induction of GLUT4myc translocation to rat L6 cells surface measured after 16 hrs by colorimetric assay; type: functional, cell-based; conditions: dose 5-25 µM
L6 [16] = assay: Cytotoxicity against rat L6 cells assessed as reduction in cell viability at 10 uM by MTT assay; type: toxicity, cell-based; conditions: l6, 10 µM

## CC(C)=CCCC1(C)C=Cc2ccc(O)c(C(=O)/C=C/c3ccc4occc4c3)c2O1 (stereo not drawn)
Syrian golden hamster [1]
  Activity: 11%
Syrian golden hamster [2]
  Activity: 11%
L6 [3]
  Activity: 108%
[4]
  Activity: 19
Syrian golden hamster [5]
  Activity: 10%
[6]
  Activity: 11
Syrian golden hamster [7]
  Activity: 17%
Syrian golden hamster [8]
  Activity: 14%

## COc1ccc(C(=O)c2cc3cc(/C=C/C(=O)c4c(O)c5c(c6c4OC(C)(C)C=C6)OC(C)(C)C=C5)ccc3o2)cc1
Syrian golden hamster [1]
  Activity: 13%
Syrian golden hamster [2]
  Activity: 15%
L6 [3]
  Activity: 22%
[4]
  Activity: 17
Syrian golden hamster [5]
  Activity: 9%
[6]
  Activity: 12
Syrian golden hamster [7]
  Activity: 21%
Syrian golden hamster [8]
  Activity: 12%

## CC1(C)C=Cc2c(O)c(C(=O)/C=C/c3ccc4oc(C(=O)c5ccccc5)cc4c3)c3c(c2O1)C=CC(C)(C)O3
Syrian golden hamster [1]
  Activity: 16%
Syrian golden hamster [2]
  Activity: 18%
L6 [3]
  Activity: 26.5%
[4]
  Activity: 11
Syrian golden hamster [5]
  Activity: 10%
[6]
  Activity: 15
Syrian golden hamster [7]
  Activity: 23%
Syrian golden hamster [8]
  Activity: 14%

## Cc1ccc(C)c(OCCCC(C)(C)C(=O)O)c1 [GEMFIBROZIL]
Syrian golden hamster [1]
  Activity: 34%
Syrian golden hamster [2]
  Activity: 36%
Syrian golden hamster [5]
  Activity: 38%
Syrian golden hamster [7]
  Activity: 41%
Syrian golden hamster [8]
  Activity: 42%

## COc1ccc(C(=O)c2cc3cc(/C=C/C(=O)c4c(O)ccc5c4OC(C)(C)C=C5)ccc3o2)cc1
Syrian golden hamster [1]
  Activity: 11%
L6 [9]
  Activity: 93%
L6 [10]
  Activity: inactive
Syrian golden hamster [2]
  Activity: 13%
L6 [3]
  Activity: 220.5%
L6 [11]
  Activity: Active
[4]
  Activity: 7
L6 [12]
  Activity: Non-Toxic
Syrian golden hamster [5]
  Activity: 10%
Rattus norvegicus [13]
  Activity: 16.8%
Rattus norvegicus [14]
  Activity: 18.7%
[6]
  Activity: 10
L6 [15]
  Activity: Dose-Dependent Effect
Syrian golden hamster [7]
  Activity: 17%
Syrian golden hamster [8]
  Activity: 12%

## Cc1ccc(C(=O)c2cc3cc(/C=C/C(=O)c4ccc5c(c4O)C=CC(C)(C)O5)ccc3o2)cc1
Syrian golden hamster [1]
  Activity: 11%
Syrian golden hamster [2]
  Activity: 13%
L6 [3]
  Activity: 53.1%
[4]
  Activity: 10
Syrian golden hamster [5]
  Activity: 13%
[6]
  Activity: 11
Syrian golden hamster [7]
  Activity: 18%
Syrian golden hamster [8]
  Activity: 17%

## CC(C)=CCCC1(C)C=Cc2ccc(O)c(C(=O)/C=C/c3ccc4oc(C(=O)c5ccccc5)cc4c3)c2O1 (stereo not drawn)
Syrian golden hamster [1]
  Activity: 6%
Syrian golden hamster [2]
  Activity: 8%
L6 [3]
  Activity: 82.5%
[4]
  Activity: 13
Syrian golden hamster [5]
  Activity: 17%
[6]
  Activity: 12
Syrian golden hamster [7]
  Activity: 13%
Syrian golden hamster [8]
  Activity: 19%

## CC(C)=CCCC1(C)C=Cc2ccc(O)c(C(=O)/C=C/c3ccc4oc(C(=O)c5ccc(Cl)cc5)cc4c3)c2O1 (stereo not drawn)
Syrian golden hamster [1]
  Activity: 18%
Syrian golden hamster [2]
  Activity: 18%
L6 [3]
  Activity: 4%
[4]
  Activity: 13
Syrian golden hamster [5]
  Activity: 11%
[6]
  Activity: 12
Syrian golden hamster [7]
  Activity: 24%
Syrian golden hamster [8]
  Activity: 15%

## CC(C)=CCCC1(C)C=Cc2c(ccc(C(=O)/C=C/c3ccc4occc4c3)c2O)O1 (stereo not drawn)
Syrian golden hamster [1]
  Activity: 19%
L6 [9]
  Activity: 73.5%
Syrian golden hamster [2]
  Activity: 11%
L6 [3]
  Activity: 188%
[4]
  Activity: 16
Syrian golden hamster [5]
  Activity: 16%
Rattus norvegicus [13]
  Activity: 17.2%
Rattus norvegicus [14]
  Activity: 19.2%
[6]
  Activity: 14
Syrian golden hamster [7]
  Activity: 21%
Syrian golden hamster [8]
  Activity: 20%

## CC1(C)C=Cc2c(O)c(C(=O)/C=C/c3ccc4occc4c3)c3c(c2O1)C=CC(C)(C)O3
Syrian golden hamster [1]
  Activity: 13%
Syrian golden hamster [2]
  Activity: 19%
L6 [3]
  Activity: 124%
[4]
  Activity: 12
Syrian golden hamster [5]
  Activity: 11%
Rattus norvegicus [13]
  Activity: 0.81%
Rattus norvegicus [14]
  Activity: 2.3%
[6]
  Activity: 16
Syrian golden hamster [7]
  Activity: 22%
Syrian golden hamster [8]
  Activity: 15%

## Oc1ncnc2[nH]ncc12
[6]
  Activity: 37

## COc1ccc(C(=O)c2cc3cc(/C=C/C(=O)c4c(O)c5c(c6c4OC(C)(CCC=C(C)C)C=C6)OC(C)(CCC=C(C)C)C=C5)ccc3o2)cc1 (stereo not drawn)
Syrian golden hamster [1]
  Activity: 13%
Syrian golden hamster [2]
  Activity: 14%
L6 [3]
  Activity: 37%
[4]
  Activity: 11
Syrian golden hamster [5]
  Activity: 18%
[6]
  Activity: 9
Syrian golden hamster [7]
  Activity: 16%
Syrian golden hamster [8]
  Activity: 21%

## CC(C)=CCCC1(C)C=Cc2ccc(O)c(C(=O)/C=C/c3ccc4oc(C(=O)c5ccc(C)cc5)cc4c3)c2O1 (stereo not drawn)
Syrian golden hamster [1]
  Activity: 17%
Syrian golden hamster [2]
  Activity: 14%
L6 [3]
  Activity: 47.4%
[4]
  Activity: 11
Syrian golden hamster [5]
  Activity: 18%
[6]
  Activity: 19
Syrian golden hamster [7]
  Activity: 22%
Syrian golden hamster [8]
  Activity: 22%

## COc1ccc(C(=O)c2cc3cc(/C=C/C(=O)c4ccc5c(c4O)C=CC(C)(C)O5)ccc3o2)cc1
Syrian golden hamster [1]
  Activity: 13%
Syrian golden hamster [2]
  Activity: 16%
L6 [3]
  Activity: 109.5%
[4]
  Activity: 11
Syrian golden hamster [5]
  Activity: 15%
[6]
  Activity: 16
Syrian golden hamster [7]
  Activity: 21%
Syrian golden hamster [8]
  Activity: 19%

## CN(CCOc1ccc(CC2SC(=O)NC2=O)cc1)c1ccccn1 (stereo not drawn) [ROSIGLITAZONE]
L6 [3]
  Activity: 96.5%

## CC1(C)C=Cc2ccc(O)c(C(=O)/C=C/c3ccc4oc(C(=O)c5ccc(Cl)cc5)cc4c3)c2O1
Syrian golden hamster [1]
  Activity: 6%
Syrian golden hamster [2]
  Activity: 7%
L6 [3]
  Activity: 89%
[4]
  Activity: 12
Syrian golden hamster [5]
  Activity: 8%
[6]
  Activity: 17
Syrian golden hamster [7]
  Activity: 11%
Syrian golden hamster [8]
  Activity: 10%

## Cc1ccc(C(=O)c2cc3cc(/C=C/C(=O)c4c(O)ccc5c4OC(C)(C)C=C5)ccc3o2)cc1
Syrian golden hamster [1]
  Activity: 11%
Syrian golden hamster [2]
  Activity: 15%
L6 [3]
  Activity: 72.9%
[4]
  Activity: 18
Syrian golden hamster [5]
  Activity: 16%
[6]
  Activity: 13
Syrian golden hamster [7]
  Activity: 19%
Syrian golden hamster [8]
  Activity: 20%

## CC1(C)C=Cc2c(ccc(C(=O)/C=C/c3ccc4occc4c3)c2O)O1
Syrian golden hamster [1]
  Activity: 10%
L6 [9]
  Activity: 96%
Syrian golden hamster [2]
  Activity: 15%
L6 [3]
  Activity: 161.5%
[4]
  Activity: 12
Syrian golden hamster [5]
  Activity: 13%
[6]
  Activity: 16
Syrian golden hamster [7]
  Activity: 19%
Syrian golden hamster [8]
  Activity: 17%

## CC(C)=CCCC1(C)C=Cc2c(ccc(C(=O)/C=C/c3ccc4oc(C(=O)c5ccccc5)cc4c3)c2O)O1 (stereo not drawn)
Syrian golden hamster [1]
  Activity: 13%
Syrian golden hamster [2]
  Activity: 10%
L6 [3]
  Activity: 20.5%
[4]
  Activity: 18
Syrian golden hamster [5]
  Activity: 21%
[6]
  Activity: 18
Syrian golden hamster [7]
  Activity: 18%
Syrian golden hamster [8]
  Activity: 25%

## COc1ccc(C(=O)c2cc3cc(/C=C/C(=O)c4ccc5c(c4O)C=CC(C)(CCC=C(C)C)O5)ccc3o2)cc1 (stereo not drawn)
Syrian golden hamster [1]
  Activity: 10%
Syrian golden hamster [2]
  Activity: 10%
L6 [3]
  Activity: 6%
[4]
  Activity: 7
Syrian golden hamster [5]
  Activity: 7%
[6]
  Activity: 9
Syrian golden hamster [7]
  Activity: 14%
Syrian golden hamster [8]
  Activity: 9%

## CN(C)C(=N)NC(=N)N [METFORMIN]
Rattus norvegicus [13]
  Activity: 27.9%
Rattus norvegicus [14]
  Activity: 30.5%

## OC[C@@H](O)[C@@H](O)[C@H](O)[C@H](O)CO
[4]
  Activity: 39

## CC1(C)C=Cc2c(O)c(C(=O)/C=C/c3ccc4oc(C(=O)c5ccc(Cl)cc5)cc4c3)c3c(c2O1)C=CC(C)(C)O3
Syrian golden hamster [1]
  Activity: 16%
Syrian golden hamster [2]
  Activity: 24%
L6 [3]
  Activity: 27%
[4]
  Activity: 13
Syrian golden hamster [5]
  Activity: 11%
[6]
  Activity: 21
Syrian golden hamster [7]
  Activity: 26%
Syrian golden hamster [8]
  Activity: 15%

## CC1(C)C=Cc2ccc(O)c(C(=O)/C=C/c3ccc4occc4c3)c2O1
Syrian golden hamster [1]
  Activity: 19%
L6 [16]
  Activity: Toxic
Syrian golden hamster [2]
  Activity: 11%
[4]
  Activity: 15
Syrian golden hamster [5]
  Activity: 14%
[6]
  Activity: 18
Syrian golden hamster [7]
  Activity: 21%
Syrian golden hamster [8]
  Activity: 18%

## COc1ccc(C(=O)c2cc3cc(/C=C/C(=O)c4c(O)ccc5c4OC(C)(CCC=C(C)C)C=C5)ccc3o2)cc1 (stereo not drawn)
Syrian golden hamster [1]
  Activity: 15%
Syrian golden hamster [2]
  Activity: 16%
L6 [3]
  Activity: 65.5%
[4]
  Activity: 13
Syrian golden hamster [5]
  Activity: 16%
[6]
  Activity: 11
Syrian golden hamster [7]
  Activity: 19%
Syrian golden hamster [8]
  Activity: 19%

Reference: ChEMBL document CHEMBL5252641, “Design, synthesis, and evaluation of benzofuran-based chromenochalcones for antihyperglycemic and antidyslipidemic activities” (RSC Med Chem, 2023)
